Here are results for 1 compound from US7094787B2, “Compositions for regulating desire for smoking” (Taiyo Kagaku Co., Ltd., priority 2000, dated 2006).

The series deals with mice. It counts as in vivo. Conditions: oral administration at 5 g/kg weight. An excerpt:
The composition of the present invention is based on action for suppressing the craving for smoking that has been found for the theanine for the first time. The theanine has been known to be a main ingredient of sapidity in tea and used as a food additive for the sapidity. […] There is no limitation in an amount of addition based on the Food Hygiene Law. Further, unlike a conventional nicotine preparation, since there is no dependence, the composition of the present invention can suppress the craving for smoking safely and effectively.

Consider `CCNC(=O)CC[C@H](N)C(=O)O` [theanine, γ-glutamyl ethylamide], for which the “death in acute toxicity test” value is reported as “no case of death”.
